Test results reported in patent publication EP0612730A1, “O-aryl ethers of morphinans” (F. HOFFMANN-LA ROCHE AG, priority 1993, dated 1994).
pIC50: −log10 of the molar value. Structures can show the parent of a compound that is named as a salt.

These compounds were tested on NMDA receptor (assay: NMDA-induced convulsions in mice (NMDA-induced anticonvulsant test)). Conditions: NMDA 175 mg/kg i.p. 30 min after i.p. test compound (60 min after oral), percent protection = 100 (E-C)/(10-C), dose and route of test compound not given.
Assay type: in vivo
Description: As indicated above, the compounds of formula I are active as non-competitive NMDA receptor antagonists and are therefore, useful as neuroprotecting agents, for example, in the treatment of injury to central neurons associated with ischemia, hypoxia, hypoglycemia, epilepsy, Huntington's disease or Alzheimer's disease.
1. NMDA-Induced convulsions in mice
Male mice 45-54 days old and weighing 18-30 g are food-deprived for 24 hrs and then assigned in groups of 10 to various treatment conditions. In general, the method of Lehmann et al. described in J. Pharmacol. Exp. Ther. 240, 1987, 737-746, is used. Mice are administered a test compound intraperitoneally and are injected with NMDA (175 mg/kg i.p.) 30 minutes later. If any test compound is administered orally, the NMDA is injected 60 minutes later. NMDA is dissolved in 0.9% saline. Test compounds are likewise dissolved in 0.9% saline or, when necessary, suspended in 5% gum acacia. All injections are made in a volume of 0.2 ml/20 g body weight. […] Results are represented as the number of mice protected at each dose level of a test compound; this gives an indication of the degree of protection at each dose and indicates whether there was a dose level at which complete protection occurred. A formula is used which adjusts for the number of mice "protected" in the control group, since the dose of NMDA used induces convulsions in less than 100 percent of the mice in the control group. The formula used is: percent protection = 100 (E-C)/(10-C), where E is the number of mice protected at the dose of the test compound, C is the number of mice not convulsing in the vehicle control group, and 10 is the number of mice per group. A given dose level of a compound is regarded as being active if this percent protection score is equal to or greater than 50 percent.

Which “% mice protected” value does the source give for `CC(C)(CO)N1CC[C@]23CCCC[C@H]2[C@H]1Cc1ccc(Oc2ccccn2)cc13` [Example 18, (+)-β,β-dimethyl-3-(2-pyridinyloxy)morphinan-17-ethanol] here?
Its value is 50%.

How did the “% mice protected” value turn out when `CN1CC[C@@]23CCCC[C@@H]2[C@@H]1Cc1ccc(Oc2nccs2)cc13` [Fumarate (the 1st table, row 4)] was run?
The value was 86%.

With `CN1CC[C@@]23CCCC[C@@H]2[C@@H]1Cc1ccc(Oc2cccc(Br)n2)cc13` [Fumarate (the 1st table, row 6)] as the compound, how does the “% mice protected” value read?
The value was 67%.

With `CN1CC[C@@]23CCCC[C@@H]2[C@@H]1Cc1ccc(Oc2ccccn2)cc13` [Oxalate] as the compound, how does the “% mice protected” value read?
Its value is 86%.

These compounds were tested on cell suspensions prepared from embryonic rat cortices (assay: Acute glutamate neurotoxicity in cortical cell cultures (lactate dehydrogenase release)). Conditions: embryonic rat cortical cultures 8-12 days in vitro, glutamate for 5 to 30 min at room temperature, LDH in supernatant after overnight at 37°C.
Assay type: cell-based
Protocol: 2. Acute glutamate neurotoxicity
Single cell suspensions were prepared from embryonic rat cortices by digestion with dispase (2.4 U/ml) and subsequent trituration with fire polished Pasteur pipettes. The cells were then plated on poly-D-lysine coated microtiter plates (96 well/plate, 10⁵ cells/well) in a total volume of 100 µl essential medium supplemented with 10% horse serum and penicillin/streptomycin . Five days later, non-neuronal cell division was halted by exposure to […] combined with a 50% exchange of culture medium. The cultures were used for neurotoxicity assays from 8-12 days in vitro. Acute glutamate toxicity was performed as described in J. Koh et al. in Neurosci. 8, 1988, 185-196, in […] of a control salt solution [CSS: 120 mM NaCl, 5.4 mM KCl, 0.8 mm MgCl₂, 1.8 mM CaCl₂, 25 mM Tris HCl (pH 7.4 at 25°C) and 15 mM glycose] with […] glutamate for 5 to 30 min at room temperature with or without addition of substances to be tested.After washing, the cultures were maintained in 100 µl CSS overnight at 37°C. For quantitation of neurodegeneration, lactate dehydrogenase was measured in the cell culture supernatant as described by J.G. Klingman et al. in Neurosci. Meth. 31, 1990, 47-51. […] From dose response curves, IC₅₀ values were calculated.

With `CN1CC[C@@]23CCCC[C@@H]2[C@@H]1Cc1ccc(Oc2ncccc2N)cc13` [2 HCl] as the compound, how does the pIC50 read?
The pIC50 was 4.85.

`CN1CC[C@]23CCCC[C@H]2[C@H]1Cc1ccc(Oc2ccccn2)cc13` [Example 2, (+)-3-(2-pyridyloxy)-N-methyl-morphinan] was tested. Which pIC50 did it give?
The pIC50 was 5.40.

How did the pIC50 turn out when `CC(C)(CO)N1CC[C@]23CCCC[C@H]2[C@H]1Cc1ccc(Oc2ccccn2)cc13` [Example 18, (+)-β,β-dimethyl-3-(2-pyridinyloxy)morphinan-17-ethanol] was run?
The pIC50 was 4.85.

With `Cc1cccc(Oc2ccc3c(c2)[C@@]24CCCC[C@H]2[C@@H](C3)NCC4)n1` [Example 22, (+)-3-[6-methyl-(2-pyridinyl)oxy] morphinan] as the compound, how does the pIC50 read?
The pIC50 was 5.70 to 6.00.

With `CN1CC[C@@]23CCCC[C@@H]2[C@@H]1Cc1ccc(Oc2cccc(Br)n2)cc13` [Fumarate (the 3rd table, row 5)] as the compound, how does the pIC50 read?
Its pIC50 is 5.70 to 6.00.

How did the pIC50 turn out when `CN1CC[C@@]23CCCC[C@@H]2[C@@H]1Cc1ccc(Oc2nccs2)cc13` [Fumarate (the 3rd table, row 10)] was run?
Its pIC50 is 5.30.

With `CN1CC[C@@]23CCCC[C@@H]2[C@@H]1Cc1ccc(Oc2cccnc2)cc13` [Fumarate] as the compound, how does the pIC50 read?
The pIC50 was 5.19.

How did the pIC50 turn out when `CN1CC[C@@]23CCCC[C@@H]2[C@@H]1Cc1ccc(Oc2cccs2)cc13` [Fumarate] was run?
Its pIC50 is 4.89.

How did the pIC50 turn out when `CN1CC[C@@]23CCCC[C@@H]2[C@@H]1Cc1ccc(Oc2ncccc2[N+](=O)[O-])cc13` [Fumarate] was run?
The pIC50 was 5.30.

`CN1CC[C@@]23CCCC[C@@H]2[C@@H]1Cc1ccc(Oc2ncccn2)cc13` [Fumarate] was tested. Which pIC50 did it give?
The pIC50 was 5.40.

`Cc1cccc(Oc2ccc3c(c2)[C@]24CCCC[C@@H]2[C@H](C3)N(C)CC4)n1` [Fumarate] was tested. Which pIC50 did it give?
Its pIC50 is 6.70.

With `O=[N+]([O-])c1cccnc1Oc1ccc2c(c1)[C@]13CCCC[C@@H]1[C@H](C2)NCC3` [HCl] as the compound, how does the pIC50 read?
The pIC50 was 6.30.

How did the pIC50 turn out when `c1ccc(Oc2ccc3c(c2)[C@]24CCCC[C@@H]2[C@H](C3)NCC4)cc1` [HCl] was run?
Its pIC50 is 6.00.

How did the pIC50 turn out when `c1ccc(Oc2ccc3c(c2)[C@]24CCCC[C@@H]2[C@H](C3)NCC4)nc1` [Maleate] was run?
The pIC50 was 5.22.

With `c1csc(Oc2ccc3c(c2)[C@]24CCCC[C@@H]2[C@H](C3)NCC4)n1` [Maleate] as the compound, how does the pIC50 read?
The pIC50 was 5.10.

How did the pIC50 turn out when `CN1CC[C@@]23CCCC[C@@H]2[C@@H]1Cc1ccc(Oc2ccccc2)cc13` [Oxalate] was run?
The pIC50 was 5.22.
